Test results taken from PMC10102842 (Clinical cancer research : an official journal of the …, 2023).

Molecular target: DNA polymerase theta (Polθ) (Homo sapiens, UniProt O75417)
Assay: Nano-luciferase MMEJ reporter assay in HEK-293 cells
Format: cell-based

Sequence of DNA polymerase theta (Polθ) (O75417 whole entry): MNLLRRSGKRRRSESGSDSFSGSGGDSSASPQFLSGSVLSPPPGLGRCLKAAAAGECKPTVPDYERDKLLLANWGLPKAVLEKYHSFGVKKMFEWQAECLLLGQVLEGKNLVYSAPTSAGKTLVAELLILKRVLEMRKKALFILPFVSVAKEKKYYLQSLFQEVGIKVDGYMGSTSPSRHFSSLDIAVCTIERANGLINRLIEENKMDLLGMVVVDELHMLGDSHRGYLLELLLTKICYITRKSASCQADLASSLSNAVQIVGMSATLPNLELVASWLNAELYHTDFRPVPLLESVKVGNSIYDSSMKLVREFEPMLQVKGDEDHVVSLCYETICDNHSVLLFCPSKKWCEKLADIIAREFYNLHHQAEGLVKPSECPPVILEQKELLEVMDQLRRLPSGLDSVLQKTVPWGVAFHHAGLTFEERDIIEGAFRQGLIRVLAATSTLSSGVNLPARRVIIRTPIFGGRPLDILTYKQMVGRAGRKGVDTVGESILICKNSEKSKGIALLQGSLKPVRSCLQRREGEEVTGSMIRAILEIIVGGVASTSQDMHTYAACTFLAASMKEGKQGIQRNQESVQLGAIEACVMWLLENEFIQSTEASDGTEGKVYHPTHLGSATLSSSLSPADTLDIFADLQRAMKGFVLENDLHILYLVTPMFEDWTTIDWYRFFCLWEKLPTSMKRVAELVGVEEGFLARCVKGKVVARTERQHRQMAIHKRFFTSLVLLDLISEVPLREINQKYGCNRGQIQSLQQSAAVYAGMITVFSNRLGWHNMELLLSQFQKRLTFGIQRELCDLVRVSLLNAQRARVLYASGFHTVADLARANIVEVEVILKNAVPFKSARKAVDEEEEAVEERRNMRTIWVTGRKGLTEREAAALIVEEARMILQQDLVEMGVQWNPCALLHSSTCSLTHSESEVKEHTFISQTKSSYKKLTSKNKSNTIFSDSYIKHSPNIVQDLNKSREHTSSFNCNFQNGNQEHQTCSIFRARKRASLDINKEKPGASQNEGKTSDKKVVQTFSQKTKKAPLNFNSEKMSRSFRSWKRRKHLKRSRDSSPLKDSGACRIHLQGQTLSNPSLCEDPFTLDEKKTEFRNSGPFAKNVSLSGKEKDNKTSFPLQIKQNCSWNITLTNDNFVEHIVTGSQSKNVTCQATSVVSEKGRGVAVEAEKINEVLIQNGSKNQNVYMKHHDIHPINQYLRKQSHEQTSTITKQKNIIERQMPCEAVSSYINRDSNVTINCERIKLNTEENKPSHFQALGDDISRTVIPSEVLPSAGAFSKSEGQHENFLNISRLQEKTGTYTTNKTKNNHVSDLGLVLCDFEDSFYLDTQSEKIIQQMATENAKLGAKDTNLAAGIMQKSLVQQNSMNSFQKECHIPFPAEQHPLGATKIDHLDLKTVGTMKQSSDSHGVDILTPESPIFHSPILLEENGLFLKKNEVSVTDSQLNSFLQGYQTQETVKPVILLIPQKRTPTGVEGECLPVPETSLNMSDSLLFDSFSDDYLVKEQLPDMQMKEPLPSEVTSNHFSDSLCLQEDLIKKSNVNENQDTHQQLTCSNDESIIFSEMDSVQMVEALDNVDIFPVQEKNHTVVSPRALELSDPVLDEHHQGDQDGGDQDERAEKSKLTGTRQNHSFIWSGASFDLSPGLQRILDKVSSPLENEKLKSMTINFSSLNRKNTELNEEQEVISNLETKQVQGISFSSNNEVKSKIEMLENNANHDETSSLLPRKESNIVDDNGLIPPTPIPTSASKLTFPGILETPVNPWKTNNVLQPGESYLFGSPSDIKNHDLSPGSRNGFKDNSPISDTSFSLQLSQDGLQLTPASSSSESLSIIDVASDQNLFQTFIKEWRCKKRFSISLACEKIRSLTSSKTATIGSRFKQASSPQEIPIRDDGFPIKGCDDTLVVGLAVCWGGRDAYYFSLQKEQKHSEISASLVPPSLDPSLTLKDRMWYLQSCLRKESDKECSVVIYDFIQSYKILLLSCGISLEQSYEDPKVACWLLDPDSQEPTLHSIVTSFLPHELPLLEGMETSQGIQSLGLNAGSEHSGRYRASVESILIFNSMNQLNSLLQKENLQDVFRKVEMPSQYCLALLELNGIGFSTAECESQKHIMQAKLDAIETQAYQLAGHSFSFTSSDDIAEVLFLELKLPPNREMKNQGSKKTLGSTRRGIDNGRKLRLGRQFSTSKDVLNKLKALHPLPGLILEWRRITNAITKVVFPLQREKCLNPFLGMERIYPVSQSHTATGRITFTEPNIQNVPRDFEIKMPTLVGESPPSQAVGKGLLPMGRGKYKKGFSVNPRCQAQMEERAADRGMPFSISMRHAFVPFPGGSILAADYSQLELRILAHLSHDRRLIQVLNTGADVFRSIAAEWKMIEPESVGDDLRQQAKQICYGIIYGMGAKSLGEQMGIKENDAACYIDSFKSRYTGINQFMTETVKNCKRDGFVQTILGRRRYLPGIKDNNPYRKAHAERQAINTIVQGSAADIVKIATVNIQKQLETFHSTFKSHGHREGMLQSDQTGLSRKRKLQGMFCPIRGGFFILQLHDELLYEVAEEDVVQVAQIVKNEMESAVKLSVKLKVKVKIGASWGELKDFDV

Substance: ART899
- IC50: ~0.18 µM
